{"source": "ChEMBL document CHEMBL1201862", "about": "“PubChem BioAssay data set” (2004)", "assay_in_all_cases": "DTP human tumour cell line panel, 48 h", "key": {"EKVX": {"system": "EKVX"}, "HCT-116": {"system": "HCT-116"}, "HL-60": {"system": "HL-60"}, "HOP-92": {"system": "HOP-92"}, "Hs-578T": {"system": "Hs-578T"}, "K562": {"system": "K562"}, "M14": {"system": "M14"}, "MCF7": {"system": "MCF7"}, "MOLT-4": {"system": "MOLT-4"}, "OVCAR-5": {"system": "OVCAR-5"}, "PC-3": {"system": "PC-3"}, "SF-268": {"system": "SF-268"}, "SK-MEL-2": {"system": "SK-MEL-2"}, "SK-OV-3": {"system": "SK-OV-3"}, "SNB-19": {"system": "SNB-19"}, "SNB-75": {"system": "SNB-75"}, "CAKI-1": {"system": "CAKI-1"}, "KM12": {"system": "KM12"}, "OVCAR-3": {"system": "OVCAR-3"}, "SF-295": {"system": "SF-295"}}, "note": "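Growth conditions: 96-well plates. Treatment: test compound, 48 hours, 5 concentrations. Analysis: linear interpolation between bracketing concentrations; unreached endpoints set to highest concentration. GI50: concentration for 50% inhibition of growth.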 Active and inactive are the calls of the source. Rule as the data show it: active = GI50 up to about 1.1 µM and inactive = higher."}
{"compound": "COc1ccc(O)c(/C=N\\Nc2ccccc2)c1", "values": [{"measurement": "GI50", "setting": "EKVX", "result": "39.7 µM (inactive)"}, {"measurement": "GI50", "setting": "HCT-116", "result": "22.6 µM (inactive)"}, {"measurement": "GI50", "setting": "HL-60", "result": "3.17 µM (inactive)"}, {"measurement": "GI50", "setting": "HOP-92", "result": "14 µM (inactive)"}, {"measurement": "GI50", "setting": "Hs-578T", "result": "30.1 µM (inactive)"}, {"measurement": "GI50", "setting": "K562", "result": "3.19 µM (inactive)"}, {"measurement": "GI50", "setting": "M14", "result": "19 µM (inactive)"}, {"measurement": "GI50", "setting": "MCF7", "result": "14.8 µM (inactive)"}, {"measurement": "GI50", "setting": "MOLT-4", "result": "1.39 µM (inactive)"}, {"measurement": "GI50", "setting": "OVCAR-5", "result": "19.5 µM (inactive)"}, {"measurement": "GI50", "setting": "PC-3", "result": "45.2 µM (inactive)"}, {"measurement": "GI50", "setting": "SF-268", "result": "13.1 µM (inactive)"}, {"measurement": "GI50", "setting": "SK-MEL-2", "result": "4.8 µM (inactive)"}, {"measurement": "GI50", "setting": "SK-OV-3", "result": "> 100 µM (inactive)"}, {"measurement": "GI50", "setting": "SNB-19", "result": "30.8 µM (inactive)"}, {"measurement": "GI50", "setting": "SNB-75", "result": "49.9 µM (inactive)"}]}
{"compound": "Brc1cccc(C2ON=C(c3ccccc3)N2C23CC4CC(CC(C4)C2)C3)c1", "note": "(stereo not given)", "values": [{"measurement": "GI50", "setting": "CAKI-1", "result": "> 10 µM (inactive)"}, {"measurement": "GI50", "setting": "EKVX", "result": "> 10 µM (inactive)"}, {"measurement": "GI50", "setting": "HCT-116", "result": "> 10 µM (inactive)"}, {"measurement": "GI50", "setting": "HOP-92", "result": "5.42 µM (inactive)"}, {"measurement": "GI50", "setting": "Hs-578T", "result": "> 10 µM (inactive)"}, {"measurement": "GI50", "setting": "K562", "result": "> 10 µM (inactive)"}, {"measurement": "GI50", "setting": "KM12", "result": "> 10 µM (inactive)"}, {"measurement": "GI50", "setting": "M14", "result": "> 10 µM (inactive)"}, {"measurement": "GI50", "setting": "MCF7", "result": "> 10 µM (inactive)"}, {"measurement": "GI50", "setting": "MOLT-4", "result": "> 10 µM (inactive)"}, {"measurement": "GI50", "setting": "OVCAR-3", "result": "> 10 µM (inactive)"}, {"measurement": "GI50", "setting": "OVCAR-5", "result": "> 10 µM (inactive)"}, {"measurement": "GI50", "setting": "PC-3", "result": "> 10 µM (inactive)"}, {"measurement": "GI50", "setting": "SF-268", "result": "> 10 µM (inactive)"}, {"measurement": "GI50", "setting": "SF-295", "result": "> 10 µM (inactive)"}, {"measurement": "GI50", "setting": "SK-MEL-2", "result": "> 10 µM (inactive)"}, {"measurement": "GI50", "setting": "SK-OV-3", "result": "> 10 µM (inactive)"}, {"measurement": "GI50", "setting": "SNB-19", "result": "> 10 µM (inactive)"}, {"measurement": "GI50", "setting": "SNB-75", "result": "6.19 µM (inactive)"}]}
{"compound": "CCOC(=O)c1c(N2CCOCC2)[nH]c(=O)c(C(c2cccs2)c2c(O)c(C(=O)OCC)c(N3CCOCC3)[nH]c2=O)c1O", "values": [{"measurement": "GI50", "setting": "CAKI-1", "result": "> 100 µM (inactive)"}, {"measurement": "GI50", "setting": "EKVX", "result": "> 100 µM (inactive)"}, {"measurement": "GI50", "setting": "HCT-116", "result": "> 100 µM (inactive)"}, {"measurement": "GI50", "setting": "HOP-92", "result": "> 100 µM (inactive)"}, {"measurement": "GI50", "setting": "Hs-578T", "result": "> 100 µM (inactive)"}, {"measurement": "GI50", "setting": "K562", "result": "> 100 µM (inactive)"}, {"measurement": "GI50", "setting": "KM12", "result": "> 100 µM (inactive)"}, {"measurement": "GI50", "setting": "M14", "result": "> 100 µM (inactive)"}, {"measurement": "GI50", "setting": "MCF7", "result": "> 100 µM (inactive)"}, {"measurement": "GI50", "setting": "MOLT-4", "result": "> 100 µM (inactive)"}, {"measurement": "GI50", "setting": "OVCAR-3", "result": "> 100 µM (inactive)"}, {"measurement": "GI50", "setting": "OVCAR-5", "result": "> 100 µM (inactive)"}, {"measurement": "GI50", "setting": "PC-3", "result": "> 100 µM (inactive)"}, {"measurement": "GI50", "setting": "SF-268", "result": "> 100 µM (inactive)"}, {"measurement": "GI50", "setting": "SF-295", "result": "> 100 µM (inactive)"}, {"measurement": "GI50", "setting": "SK-MEL-2", "result": "> 100 µM (inactive)"}, {"measurement": "GI50", "setting": "SK-OV-3", "result": "> 100 µM (inactive)"}, {"measurement": "GI50", "setting": "SNB-19", "result": "> 100 µM (inactive)"}, {"measurement": "GI50", "setting": "SNB-75", "result": "> 100 µM (inactive)"}]}
{"compound": "CC1=C(Nc2c(C)cc(O)cc2O)C(=O)C=c2oc3c(c21)C(C)=C(Nc1c(C)cc(O)cc1O)C(=O)C=3", "values": [{"measurement": "GI50", "setting": "CAKI-1", "result": "> 100 µM (inactive)"}, {"measurement": "GI50", "setting": "EKVX", "result": "47.5 µM (inactive)"}, {"measurement": "GI50", "setting": "HCT-116", "result": "26.5 µM (inactive)"}, {"measurement": "GI50", "setting": "HOP-92", "result": "> 100 µM (inactive)"}, {"measurement": "GI50", "setting": "Hs-578T", "result": "32 µM (inactive)"}, {"measurement": "GI50", "setting": "K562", "result": "34 µM (inactive)"}, {"measurement": "GI50", "setting": "KM12", "result": "28.9 µM (inactive)"}, {"measurement": "GI50", "setting": "M14", "result": "28.8 µM (inactive)"}, {"measurement": "GI50", "setting": "MCF7", "result": "26.5 µM (inactive)"}, {"measurement": "GI50", "setting": "MOLT-4", "result": "27.4 µM (inactive)"}, {"measurement": "GI50", "setting": "OVCAR-3", "result": "15.6 µM (inactive)"}, {"measurement": "GI50", "setting": "OVCAR-5", "result": "47.5 µM (inactive)"}, {"measurement": "GI50", "setting": "PC-3", "result": "24.2 µM (inactive)"}, {"measurement": "GI50", "setting": "SF-268", "result": "45.5 µM (inactive)"}, {"measurement": "GI50", "setting": "SF-295", "result": "24.4 µM (inactive)"}, {"measurement": "GI50", "setting": "SK-MEL-2", "result": "34.1 µM (inactive)"}, {"measurement": "GI50", "setting": "SK-OV-3", "result": "45.7 µM (inactive)"}, {"measurement": "GI50", "setting": "SNB-19", "result": "35.8 µM (inactive)"}, {"measurement": "GI50", "setting": "SNB-75", "result": "25.6 µM (inactive)"}]}
{"compound": "CCc1n[nH]c(=O)n1/N=C/c1c(O)ccc2ccccc12", "values": [{"measurement": "GI50", "setting": "EKVX", "result": "> 100 µM (inactive)"}, {"measurement": "GI50", "setting": "HCT-116", "result": "> 100 µM (inactive)"}, {"measurement": "GI50", "setting": "HOP-92", "result": "> 100 µM (inactive)"}, {"measurement": "GI50", "setting": "Hs-578T", "result": "2.06 µM (inactive)"}, {"measurement": "GI50", "setting": "K562", "result": "> 100 µM (inactive)"}, {"measurement": "GI50", "setting": "KM12", "result": "> 100 µM (inactive)"}, {"measurement": "GI50", "setting": "M14", "result": "> 100 µM (inactive)"}, {"measurement": "GI50", "setting": "MCF7", "result": "> 100 µM (inactive)"}, {"measurement": "GI50", "setting": "MOLT-4", "result": "> 100 µM (inactive)"}, {"measurement": "GI50", "setting": "OVCAR-3", "result": "> 100 µM (inactive)"}, {"measurement": "GI50", "setting": "OVCAR-5", "result": "> 100 µM (inactive)"}, {"measurement": "GI50", "setting": "PC-3", "result": "> 100 µM (inactive)"}, {"measurement": "GI50", "setting": "SF-268", "result": "> 100 µM (inactive)"}, {"measurement": "GI50", "setting": "SF-295", "result": "> 100 µM (inactive)"}, {"measurement": "GI50", "setting": "SK-MEL-2", "result": "> 100 µM (inactive)"}, {"measurement": "GI50", "setting": "SK-OV-3", "result": "> 100 µM (inactive)"}, {"measurement": "GI50", "setting": "SNB-19", "result": "> 100 µM (inactive)"}, {"measurement": "GI50", "setting": "SNB-75", "result": "> 100 µM (inactive)"}]}
{"compound": "O=C1/C(=C/c2ccc(Cl)cc2)CCC1CNc1ccc(Cl)cc1", "note": "(stereo not given)", "values": [{"measurement": "GI50", "setting": "CAKI-1", "result": "7.55 µM (inactive)"}, {"measurement": "GI50", "setting": "EKVX", "result": "10.7 µM (inactive)"}, {"measurement": "GI50", "setting": "HCT-116", "result": "4.73 µM (inactive)"}, {"measurement": "GI50", "setting": "HL-60", "result": "0.703 µM (active)"}, {"measurement": "GI50", "setting": "HOP-92", "result": "19.3 µM (inactive)"}, {"measurement": "GI50", "setting": "Hs-578T", "result": "16.1 µM (inactive)"}, {"measurement": "GI50", "setting": "K562", "result": "0.249 µM (active)"}, {"measurement": "GI50", "setting": "KM12", "result": "1.29 µM (inactive)"}, {"measurement": "GI50", "setting": "M14", "result": "2.37 µM (inactive)"}, {"measurement": "GI50", "setting": "MCF7", "result": "1.29 µM (inactive)"}, {"measurement": "GI50", "setting": "MOLT-4", "result": "2.29 µM (inactive)"}, {"measurement": "GI50", "setting": "OVCAR-3", "result": "7.18 µM (inactive)"}, {"measurement": "GI50", "setting": "OVCAR-5", "result": "25.2 µM (inactive)"}, {"measurement": "GI50", "setting": "PC-3", "result": "10.5 µM (inactive)"}, {"measurement": "GI50", "setting": "SF-268", "result": "7.4 µM (inactive)"}, {"measurement": "GI50", "setting": "SF-295", "result": "6.79 µM (inactive)"}, {"measurement": "GI50", "setting": "SK-MEL-2", "result": "29.2 µM (inactive)"}, {"measurement": "GI50", "setting": "SNB-19", "result": "14.7 µM (inactive)"}, {"measurement": "GI50", "setting": "SNB-75", "result": "32.3 µM (inactive)"}]}
